For series [1], the system named is GpCMV 22122. Description: Herpes virus panel neutralization, GpCMV. In kind it is cell-based, Guinea pig cytomegalovirus. As to the method: (§1) To determine the specificity of MBX-4992, additional neutralization experiments were conducted using a panel of herpes viruses performed in the presence of MBX-4992. […] Collectively, the antiviral activity of MBX-4992 is equivalent to that of GCV indicating specific inhibition of CMV replication.

Series [2] relates to AD169 and AD169^R. In words: IE1 expression 2 days post-infection in fibroblasts. It counts as cell-based, Human cytomegalovirus. As to the method:
HCMV strains AD169^R (A) and AD169 (B) infection (MOI 0.2) of NHDF cells pre-treated with 0, 5, and 20 μM MBX-4992 were assessed at 1 dpi or 2 dpi based on IE1 expression by anti-IE1 immunostain. The % infection was determined using DMSO-treated as 100% infection. The error bars represent values in triplicate. Statistical tests were performed using ordinary one-way ANOVA with multiple comparisons to DMSO treated cells as a control and a Dunnett's post-test; **, p<0.01; ****, p<0.0001. (C) Total cell lysates from AD169^R-infected (MOI 0.2) ARPE-19 cells pre-treatment with DMSO, MBX-4992 (1-20 μM) or heparin (50 μg/mL) collected at 24 hpi were subjected to Western blot analysis using a rabbit anti-IE-1 antibody (lanes 1-7) and an anti-GAPDH antibody (lanes 8-14) as a loading control. The molecular weight markers and respective proteins are indicated.
(FIG. 11A-G). […] The IC50 values were similar in diverse cell types and among the different strains further supporting that NAPA compounds are effective at inhibiting CMV infection.

The test system of series [3] is TB40/E. Description: Plaque assay, MBX-4992 and ganciclovir alone and in combination. It counts as cell-based, Human cytomegalovirus. Particulars: ARPE-19 and NHDF cells, 10 dpi; MBX-4992 1-20 μM, ganciclovir 2.5 μM.
Protocol: At 10 day post-infection, representative whole well images of plaques >10,000 μm^2 (A and B) were quantified based on GFP fluorescence intensity and calculated relative to DMSO controls (C and D). Statistical tests were performed using ordinary one-way ANOVA with multiple comparisons to DMSO treated cells as a control and a Dunnett's post-test. *, p<0.05; **, p<0.01; ***, p<0.001; ****, p<0.0001.
At 10 days post-infection, representative whole well images of plaques >10,000 μm^2 (A and B) were quantified based on GFP fluorescence intensity and calculated relative to DMSO controls (C and D).
A short description of series [4]: Murine liver microsome stability. It counts as in vitro ADME. Particulars: % remaining after 30 min at 37° C. in the presence of NADPH. (In general: Liver microsomes are a subcellular fraction often used to study metabolism.)
Series [5] deals with AD169^R. Description: Generation of infectious virions (supernatant infectious dose). In kind it is cell-based, Human cytomegalovirus. As to conditions: MRC5 fibroblasts and ARPE-19 cells, MOI 0.5, 1-20 μM for 5 days. As to the method: FIGS. 13A and B are graphs showing that MBX-4992 limits the generation of infectious virions in fibroblasts and epithelial cells. MRC5 and ARPE-19 cells infected with AD169^R (MOI 0.5) were treated with DMSO, MBX-4992 (1, 5, 10, and 20 μM), and ganciclovir (5 μM) for 5 days, washed, and replaced with media for 3 days. The supernatant of MRC5 treated-cells (A) and ARPE-19-treated (B) cells was used to infect MRC5 cells. Virus infection was analyzed 24 hpi using GFP fluorescent signal as the readout with a Celigo cytometer. The viral infectious dose (IU/ml) was determined from each condition. The error bars are based on differences of infectious dose from 5 samples. Statistical tests were performed using ordinary one-way ANOVA with multiple comparisons to DMSO treated cells as a control and a Dunnett's post-test ****, p<0.0001.

The test system of series [6] is AD169^R. In words: Virus pre-incubation / washout study. It counts as cell-based, Human cytomegalovirus. As to conditions: virus pre-incubated, compound washed out; MBX-4992 10 μM, heparin 50 μg/ml. As to the method: (B) Based on the schematic, AD169^R (MOI 0.2) was pre-incubated with DMSO, MBX-4992, or heparin for one hour before being added to NHDF cells. Virus/compound mix was washed out after 30 minutes as indicated and either unchanged or replaced with media containing DMSO, MBX-4992, or heparin. Virus infection was quantified at 24 hpi GFP fluorescence. Percent infection was normalized to untreated cells.
NHDF cells (10^4) plated overnight in a 96-well plate were incubated at 4° C. for 30 minutes with AD169^R CMV virus pretreated with MBX-4992 (10 μM), Heparin (50 μg/mL) or DMSO for 1 hour at room temperature (in triplicate). For 2/3rd of the samples, media was aspirated and half of the wells received DMSO media, regardless of which drug the virus was exposed to, or MBX-4992 (10 μM), or Heparin (50 μg/mL) overnight. At 18 hpi, the cells were fixed with 4% paraformaldehyde, stained with a rabbit anti-IE1 antibody followed by an anti-rabbit Alexa 647, and analyzed using the Celigo cytometer. The DMSO condition that was not aspirated post binding was set as 100% infection.
To further characterize the mechanism of action, pre-incubation/washout studies were performed using AD169^R and MBX-4992. […] At 18 hpi, cells were immunostained with an anti-IE1 antibody as a readout for infection and quantified using a Celigo cytometer. […]

Series [7] concerns HCMV AD169. Description: Herpes virus panel neutralization, HCMV AD169. In kind it is cell-based, Human cytomegalovirus. As to the method:
as §1

Series [8] relates to CMV strains AD169^R and TB40/E. Description: CMV infection assay, strains AD169^R and TB40/E together. It counts as cell-based, Human cytomegalovirus.

Experimental findings from US20250177392A1, “BROAD SPECTRUM INHIBITORS OF CYTOMEGALOVIRUS” (MICROBIOTIX, INC., priority 2022, published 2025) are described below.

As for `Cc1nc(Nc2ccc(NC(=O)c3ccco3)cc2)cc(N2CCCC2)n1` [MBX-4992], the figures for the SI in series [1] and in series [7] (HCMV AD169) were less than 4 and greater than 88, respectively. In addition, the IC50 in series [1] (Caviid betaherpesvirus 2) is greater than 30 µM; in series [7] (Human betaherpesvirus 5, AD169), 1.7 µM; in series [8] (Human betaherpesvirus 5, AD169, read-out: IC50 values ranging), 1.9 to 4.8 µM. Besides, the IE1 expression entry in series [2] is reported as “similarly effective at limiting IE1 expression”. Moreover, in series [3], the “viral plaques >10,000 μm^2, single drug” value was “decreased”. Further, in series [4], the MLMS was 49%. Also, the “generation of infectious virions” value in series [5] is on record as “significantly decreased generation of infectious AD169^R virions”. For the same molecule, the “decrease of infection after washing out” value in series [6] is on record as roughly 25%. In addition, in series [8] (HRT8svNEO trophoblasts, 24 hpi, IE1 immunostain), the infection of trophoblasts result is reported as “limited infection”.

For orientation: IC50 means the concentration needed to halve the response being measured.
